# Experimental data: patent US20230190743A1, “TREATMENT WITH ILEAL BILE ACID TRANSPORTER (IBAT) INHIBITORS FOR INCREASED EVENT-FREE SURVIVAL (EFS)” (Mirum Pharmaceuticals, Inc., priority 2021, published 2023)
# “Also recorded” adds a separate entry of the source.
# Columns and labels:
# [1] = system: children with FIC1 or BSEP deficiencies (PFIC); test: INDIGO open-label Phase 2 long-term efficacy and safety study; assay type: in vivo, human; conditions: for tolerability: up to 5 years of treatment
# Method: INDIGO investigated the effect of maralixibat on sBA levels and cholestatic pruritus, alongside other biochemical markers of cholestasis and liver disease in these patients.
# The study was conducted at 12 hospitals in France, Poland, the United Kingdom, and the United States. Screening evaluations were performed in the 6 weeks prior to the start of the study. In patients without documented ATP8B1 or ABCB11 mutations, genetic testing was performed.
# The primary efficacy endpoint was the change in mean fasting sBA levels from Baseline to Week 13 in the overall intent-to-treat (ITT) study population. The key secondary efficacy endpoint was the mean change in observer-rated pruritus (Itch Reported Outcome Observer [ItchRO(Obs)]) score from Baseline to Week 13 in the overall ITT study population. Other secondary efficacy endpoints included the mean changes from Baseline to Week 13 in total cholesterol, low- and high-density lipoprotein cholesterol (LDL-C and HDL-C, respectively), and serum triglyceride levels in the overall ITT study population. Additional efficacy and safety analyses included the change from Baseline to Week 72 and Week 240 in sBA levels, patient height and weight, bile acid synthesis (as determined by the ratio between sBA levels and 7α-hydroxy-4-cholesten-3-one [7α-C4] levels), quality of life as measured by the Pediatric Quality of Life Inventory™ (PedsQL™), mean changes in ALT, aspartate aminotransferase (AST), and bilirubin (total and direct), lipid profiles, and FSV levels. The ItchRO assessment was not performed at Week 72, so data from Week 48 were used instead.
# Efficacy and safety analyses were performed for the overall ITT study population as well as the two PFIC subtypes (FIC1 deficiency and BSEP deficiency) separately. Patients with BSEP deficiency were analyzed overall and according to their mutation type (t-BSEP and nt-BSEP). Long-term changes in pruritus scores, patient height, blood lipids, liver parameters, and transplant-free survival were assessed according to a responder analysis.
# Quantitative analysis of the 15 major sBAs and serum 7α-C4 was performed at a single site (Cincinnati) by stable isotope dilution electrospray ionization liquid chromatography-mass spectrometry (LCMS/MS) using a fully validated proprietary assay that complies with College of American Pathologists/Clinical Laboratory Improvement Amendments certification. The study protocol defined a composite response to maralixibat as achieving a ≥1.0-point reduction in ItchRO(Obs) score and a ≥70% reduction or normalization of sBA levels from Baseline. […] Pruritus was measured using the ItchRO tool, which was specifically developed and validated to evaluate pruritus in children with cholestatic liver diseases, based on a five-point scale where 0=‘none’ and 4=‘very severe’. […] The ItchRO measure was completed twice daily via an eDiary. Parents/caregivers completed the ItchRO(Obs) assessment for all patients. Additionally, children ≥9 years of age completed the ItchRO(Pt) assessment. Levels of ALT, AST, bilirubin (total and direct), lipids, and FSV were assessed using standard clinical laboratory techniques. Quality of life was assessed using the PedsQL™ questionnaire. […] The occurrence of treatment-emergent adverse events (TEAEs) and serious adverse events (SAEs) was assessed throughout the study.
# [2] = system: patients with ALGS; test: Predictors of 6-year EFS and TFS in maralixibat-treated patients from three long-term clinical trials; assay type: in vivo, human
# Method: MRX-treated ALGS patients from 3 long-term clinical trials were followed for development of clinically significant events (LTx, surgical biliary diversion [SBD], hepatic decompensation [ascites requiring therapy and variceal bleeding], and death) for up to 6 yrs. TFS (LTx and death only) was also assessed. Those who were on MRX 48 weeks from the first dose and had lab results at 48 weeks were included in this analysis. Variables considered in the model included: liver biochemistries, platelets, pruritus (as assessed by ItchRO(Obs) 0¬4 scale), total serum bile acids (sBA), and age. Goodness of fit was assessed using Harrell's concordance statistic (C-statistic). Cutoffs were determined via a grid search. P-values are from a log-rank test.
# Patients (N=76) with ALGS aged 14-207 months with moderate-to-severe pruritus were included in this analysis. Maralixibat-treated patients with ALGS from three long-term clinical trials (ClinicalTrials.gov ID: NCT02047318; ClinicalTrials.gov ID: NCT02160782; ClinicalTrials.gov ID: NCT02117713) were followed for development of first clinically significant event (LT, surgical biliary diversion, hepatic decompensation [ascites requiring therapy and variceal bleeding], or death) for up to six years. TFS (LT and death only) was also assessed. Patients who were on maralixibat 48 weeks from the first dose and had lab results at 48 weeks were included in this analysis.
# Variables considered in the model included: liver biochemistries, platelets, pruritus (as assessed by Itch-Reported Outcome [Observer] [ItchRO(Obs)] 0-4 scale), total sBA, and age at initiation. These were explored at baseline, week 48, and change from baseline to week 48. Goodness of fit was assessed using Harrell's concordance statistic (C-statistic). Variables with a value ≥0.7 (indicating a good model) were selected for further analysis. Cutoffs for each variable were determined via a grid search across the range of values. Statistical comparisons between the cutoff groups were calculated using a log-rank test.
# [3] = Week 48 sBA <200 μmol/L, n = 56
# [4] = Week 48 sBA ≥200 μmol/L, n = 18
# [5] = Week 48 total bilirubin <6.5 mg/dL, n = 52
# [6] = Week 48 total bilirubin ≥6.5 mg/dL, n = 24
# [7] = age at initiation of maralixibat <36 months, n = 21
# [8] = age at initiation of maralixibat ≥36 months, n = 55
# [9] = change from baseline to week 48 ItchRO(Obs) >1 pt reduction, n = 46
# [10] = change from baseline to week 48 ItchRO(Obs) ≤1 pt reduction, n = 30
smiles,measurement,setting,value
CCCCC1(CCCC)CS(=O)(=O)c2ccc(N(C)C)cc2[C@@H](c2ccc(OCc3ccc(C[N+]45CCN(CC4)CC5)cc3)cc2)[C@H]1O [maralixibat],sBA responders who achieved response during once-daily dosing,[1]; 266 μg/kg once daily,six and Six
same,sBA responders who achieved response after switching to twice-daily dosing,"[1]; 266 μg/kg twice daily, after Week 97",one
same,"TEAE cough, patients",[1]; 18 patients,55%
same,"TEAE diarrhea, patients",[1]; 19 patients,58%
same,"TEAE pyrexia, patients",[1]; 20 patients,61%
same,TEAEs mild or moderate in severity,[1]; 33 patients,58%
same,patients who experienced ≥1 TEAE,"[1]; 33 patients, result in words",All patients
same,sBA non-responders with transplant-free survival after >5 years,"[1]; P<0.001 vs sBA responders, result in words",none
same,mean reduction from Baseline in ItchRO(Obs) score,"[1]; Week 13, ITT population, 95% CI −1.04, −0.53, P<0.001",−0.8
same,mean reduction from Baseline in ItchRO(Pt) score,"[1]; Week 13, ITT population, 95% CI −1.55, −0.47, P=0.002",−1.0
same,patients with serious TEAEs,[1]; during the study,15 patients
same,patients with FIC1 deficiency who met the sBA responder criteria,"[1]; eight patients with FIC1 deficiency, result in words",No patient
same,"SAEs abdominal pain, diarrhea, and gastroenteritis",[1]; in vivo,two
same,patients who discontinued due to adverse events or liver transplantation following disease progression,[1]; in vivo,12 patients
same,sBA responders listed for liver transplantation who were removed from the transplant waiting list,[1]; listed for refractory pruritus at the beginning of the study,Two
same,patients with nt-BSEP who achieved sBA response,[1]; n=19 nt-BSEP,37%
same,patients with nt-BSEP with rapid and sustained reductions in sBA levels,[1]; of 19 patients with nt-BSEP,6 patients
same,patients with nt-BSEP who achieved sBA response (reduction >75% from baseline or <102.0 μmol/L),"[1]; of 19 with nt-BSEP, during the study",seven
same,patients who discontinued maralixibat due to an adverse event,"[1]; one with FIC1 deficiency, seven with BSEP deficiency",Eight
same,change in sBA levels from Baseline to Week 13,"[1]; overall ITT population (33 patients), 95% CI −74.830, 41.070, P=0.884",-16.9 µmol/L
same,"mean levels of sBA, ItchRO(Obs) scores, and PedsQL scores versus Baseline","[1]; patients with FIC1 deficiency, long-term, result in words",did not change significantly
same,change in mean level of serum 7α-C4,"[1]; patients with nt-BSEP, Week 240, 95% CI 4.07, 48.50, P=0.027",+26.29 ng/mL
same,deaths during the study,[1]; result in words,No deaths
same,effect on levels of FSV or liver transaminases,[1]; result in words,did not have any significant detrimental effects
same,sBA non-responders with clinically meaningful (>1.0 points) reduction in ItchRO(Obs),[1]; sBA non-responders,Three
same,change in weight z-score (decrease),"[1]; sBA non-responders, Week 72, 95% CI −0.606, −0.012",−0.30
same,time to decrease of sBA levels upon treatment initiation,[1]; sBA responders,2-4 Weeks
same,change from Baseline in mean height z-score,"[1]; sBA responders, Week 72, 95% CI 0.369, 0.976, P=0.0016",0.67
same,change from Baseline in mean weight z-score,"[1]; sBA responders, Week 72, 95% CI −0.001, 0.603, P=0.051",0.30
same,"serum ALT, AST, and bilirubin levels","[1]; sBA responders, if elevated at Baseline, result in words",improvements and/or normalization
same,change in mean PedsQL score from Baseline to Week 240,"[1]; sBA responders, 95% CI 6.7, 40.6, P=0.014",24 points
same,7α-C4/sBA ratio compared with Baseline,"[1]; sBA responders, result in words",generally increased; also recorded: increased rapidly
same,patients with t-BSEP who met the sBA responder criteria,"[1]; six patients with t-BSEP, result in words",No patients and No patient and none
same,tolerability,[1]; result in words,generally safe and well tolerated
same,tolerability,"[1]; result in words, listed as Maralixibat",generally well-tolerated; also recorded: generally well tolerated
same,clinical event: LT,[2]; 76 patients,10 n
same,clinical event: death,[2]; 76 patients,2 n
same,clinical event: decompensation,[2]; 76 patients,3 n
same,clinical event: surgical biliary diversion,[2]; 76 patients,1 n
same,patients who experienced clinical events,"[2]; 76 patients, up to six years",Sixteen
same,6-year EFS,[2]; [3],6-year EFS: 85%
same,6-year TFS,[2]; [3],6-year TFS: 90%
same,6-year EFS,[2]; [4],6-year EFS: 49%
same,6-year TFS,[2]; [4],6-year TFS: 49%
same,6-year EFS,[2]; [5],6-year EFS: 90%
same,6-year TFS,[2]; [5],6-year TFS: 94%
same,6-year EFS,[2]; [6],6-year EFS: 43%
same,6-year TFS,[2]; [6],6-year TFS: 42%
same,6-year EFS,[2]; [7],6-year EFS: 57%
same,6-year TFS,[2]; [7],6-year TFS: 57%
same,6-year EFS,[2]; [8],6-year EFS: 83%
same,6-year TFS,[2]; [8],6-year TFS: 87%
same,6-year EFS,[2]; [9],6-year EFS: 88%
same,6-year TFS,[2]; [9],6-year TFS: 93%
same,6-year EFS,[2]; [10],6-year EFS: 57%
same,6-year TFS,[2]; [10],6-year TFS: 57%
same,6-year EFS (%),[2]; number of worse EFS predictor variables: 0,89%
same,6-year EFS (%),[2]; number of worse EFS predictor variables: 1,89%
same,6-year EFS (%),[2]; number of worse EFS predictor variables: 2,86%
same,6-year EFS (%),[2]; number of worse EFS predictor variables: 3,29%
same,6-year EFS (%),[2]; number of worse EFS predictor variables: 4,33%
same,rate of 6-year EFS,[2]; patients with ≤2 predictors of worse EFS after 48 weeks of treatment,88%
same,rate of 6-year EFS,[2]; patients with ≥3 predictors of worse EFS after 48 weeks of treatment,31%
